Assay results reported in PubChem BioAssay AID200 (DTP/NCI, 2004).
“And” between values parts separate entries of the source, which are not always exact repeats. Equal entries are not always repeated. Toxic doses and inconclusive results are not listed. Where a SMILES comes first, the peptide text is derived from it. The star is where a group is joined. Cbz = O=C(OCc1ccccc1)*; Boc = CC(C)(C)OC(=O)*; Bn = c1ccc(C*)cc1

Tested on: B6C3F1 mice, B16 melanoma ip, median survival T/C
Test: NCI In Vivo Anticancer Drug Screen. Data for tumor model B16 Melanoma (intraperitoneal) in B6C3F1 mice
Settings: endpoint: median survival time, higher = longer survival
Procedure, shortened: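 Values are T/C ratios: the measurement in treated animals divided by that in vehicle-treated controls, using survival or tumor size in mice carrying transplantable tumors.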

[1] = dose: 25.0 mg/kg/injection, schedule: Q01DX009 (ip), vehicle: saline with Tween-80
[2] = dose: 50.0 mg/kg/injection, schedule: Q01DX009 (ip), vehicle: saline with Tween-80
[3] = dose: 100.0 mg/kg/injection, schedule: Q01DX009 (ip), vehicle: saline with Tween-80
[4] = dose: 3.12 mg/kg/injection, schedule: Q01DX009 (ip), vehicle: saline with Tween-80
[5] = dose: 6.25 mg/kg/injection, schedule: Q01DX009 (ip), vehicle: saline with Tween-80
[6] = dose: 12.5 mg/kg/injection, schedule: Q01DX009 (ip), vehicle: saline with Tween-80
[7] = dose: 200.0 mg/kg/injection, schedule: Q01DX009 (ip), vehicle: saline with Tween-80
[8] = dose: 50.0 mg/kg/injection, schedule: Q01DX009 (ip), vehicle: Klucel (hydroxypropylcellulose) (HPC)
[9] = dose: 100.0 mg/kg/injection, schedule: Q01DX009 (ip), vehicle: Klucel (hydroxypropylcellulose) (HPC)
[10] = dose: 6.25 mg/kg/injection, schedule: Q01DX009 (ip), vehicle: saline
[11] = dose: 12.5 mg/kg/injection, schedule: Q01DX009 (ip), vehicle: saline
[12] = dose: 50.0 mg/kg/injection, schedule: Q01DX009 (ip), vehicle: saline
[13] = dose: 100.0 mg/kg/injection, schedule: Q01DX009 (ip), vehicle: saline
[14] = dose: 200.0 mg/kg/injection, schedule: Q01DX009 (ip), vehicle: saline
[15] = dose: 25.0 mg/kg/injection, schedule: Q01DX009 (ip), vehicle: saline
[16] = dose: 25.0 mg/kg/injection, schedule: Q01DX009 (ip), vehicle: Klucel (hydroxypropylcellulose) (HPC)

## COc1cccc2c1C(=O)c1c(O)c3c(c(O)c1C2=O)C[C@@](O)(C(C)O)C[C@@H]3OC1CC(N2CCOCC2)C(O)C(C)O1 (stereo partly drawn)
dose: 0.06 mg/kg/injection, schedule: Q01DX001 (ip), vehicle: water
  T/C: 111 % of control
dose: 0.13 mg/kg/injection, schedule: Q01DX001 (ip), vehicle: water
  T/C: 115 % of control
dose: 62.5 micrograms/kg/injection, schedule: Q01DX001 (ip), vehicle: water
  T/C: 107 % of control
dose: 125.0 micrograms/kg/injection, schedule: Q01DX001 (ip), vehicle: water
  T/C: 106 % of control
dose: 250.0 micrograms/kg/injection, schedule: Q01DX001 (ip), vehicle: water
  T/C: 120 % of control

## CC1Nc2ccccc2NC1C (stereo not drawn)
[1]
  T/C: 108 % of control
[2]
  T/C: 98 % of control
[3]
  T/C: 96 % of control

## Nc1nc2c(ncn2C2OC(CO)C(O)C2N)c(=O)[nH]1 (stereo not drawn)
[4]
  T/C: 97 % of control
[5]
  T/C: 90 % of control
[6]
  T/C: 107 % of control
[1]
  T/C: 112 % of control
[2]
  T/C: 97 % of control
[3]
  T/C: 107 % of control
[7]
  T/C: 104 % of control

## COc1cc2cc(c1Cl)N1CC(=O)C(C)(O)C(=O)N(C)C(C)C(=O)OC(CC1=O)C1(C)OC1C(C)C1CC(O)(NC(=O)O1)C(OC)/C=C\C=C(\C)C2OC (stereo not drawn)
dose: 4.0 micrograms/kg/injection, schedule: Q01DX009 (ip), vehicle: distilled water + alcohol
  T/C: 109 % of control
dose: 8.0 micrograms/kg/injection, schedule: Q01DX009 (ip), vehicle: distilled water + alcohol
  T/C: 93 % of control
dose: 16.0 micrograms/kg/injection, schedule: Q01DX009 (ip), vehicle: distilled water + alcohol
  T/C: 111 % of control
dose: 32.0 micrograms/kg/injection, schedule: Q01DX009 (ip), vehicle: distilled water + alcohol
  T/C: 95 % of control

## CCCCCCCCCCCCCCCCC(C(=O)O)C(O)(CC(=O)O)C(=O)O (stereo not drawn)
dose: 8.75 mg/kg/injection, schedule: Q01DX009 (ip), vehicle: Klucel (hydroxypropylcellulose) (HPC)
  T/C: 95 % of control
dose: 17.5 mg/kg/injection, schedule: Q01DX009 (ip), vehicle: Klucel (hydroxypropylcellulose) (HPC)
  T/C: 91 % of control
dose: 35.0 mg/kg/injection, schedule: Q01DX009 (ip), vehicle: Klucel (hydroxypropylcellulose) (HPC)
  T/C: 100 % of control
dose: 70.0 mg/kg/injection, schedule: Q01DX009 (ip), vehicle: Klucel (hydroxypropylcellulose) (HPC)
  T/C: 93 % of control

## CSCCC(NC(=O)C(CC(C)C)NC(=O)OC(C)(C)C)C(N)=O (stereo not drawn) (Boc-Leu-Met-NH2; configuration not given here)
[8]
  T/C: 86 % of control
[9]
  T/C: 98 % of control and 102 % of control
dose: 200.0 mg/kg/injection, schedule: Q01DX009 (ip), vehicle: Klucel (hydroxypropylcellulose) (HPC)
  T/C: 97 % of control and 100 % of control
dose: 400.0 mg/kg/injection, schedule: Q01DX009 (ip), vehicle: Klucel (hydroxypropylcellulose) (HPC)
  T/C: 101 % of control

## COc1ccc(O)cc1
[6]
  T/C: 112 % of control
dose: 18.0 mg/kg/injection, schedule: Q01DX009 (ip), vehicle: saline with Tween-80
  T/C: 98 % of control
[1]
  T/C: 101 % of control
dose: 30.0 mg/kg/injection, schedule: Q01DX009 (ip), vehicle: saline with Tween-80
  T/C: 106 % of control
[2]
  T/C: 102 % of control
dose: 89.0 mg/kg/injection, schedule: Q01DX009 (ip), vehicle: saline with Tween-80
  T/C: 106 % of control
[3]
  T/C: 104 % of control
dose: 189.0 mg/kg/injection, schedule: Q01DX009 (ip), vehicle: saline with Tween-80
  T/C: 101 % of control
[7]
  T/C: 105 % of control

## O=[N+]([O-])c1c(O)c(CNCCCO)cc(CNCCCO)c1O
[10]
  T/C: 102 % of control
[11]
  T/C: 102 % of control

## c1cc[c]([Sn]([c]2ccccc2)([c]2ccccc2)[n]2cccc2)cc1
dose: 0.79 mg/kg/injection, schedule: Q01DX009 (ip), vehicle: saline with Tween-80
  T/C: 113 % of control
dose: 1.56 mg/kg/injection, schedule: Q01DX009 (ip), vehicle: saline with Tween-80
  T/C: 98 % of control
[4]
  T/C: 93 % of control
[5]
  T/C: 113 % of control

## NCCc1ccc(O)c(O)c1
[12]
  T/C: 96 % of control
[13]
  T/C: 106 % of control [middle of 4 runs]
[14]
  T/C: 109 % of control [middle of 4 runs]
dose: 400.0 mg/kg/injection, schedule: Q01DX009 (ip), vehicle: saline
  T/C: 115 % of control [middle of 4 runs]
dose: 500.0 mg/kg/injection, schedule: Q01DX009 (ip), vehicle: saline
  T/C: 119 % of control
dose: 600.0 mg/kg/injection, schedule: Q01DX009 (ip), vehicle: saline
  T/C: 114 % of control and 112 % of control and 118 % of control
dose: 800.0 mg/kg/injection, schedule: Q01DX009 (ip), vehicle: saline
  T/C: 121 % of control

## Cc1cc(Br)c2nsnc2c1[N+](=O)[O-]
[1]
  T/C: 95 % of control
[2]
  T/C: 95 % of control
[3]
  T/C: 103 % of control
[7]
  T/C: 90 % of control

## NC(=S)N/N=C/c1ccc(O)cn1
dose: 12.5 mg/kg/injection, schedule: Q01DX009 (ip), vehicle: suspension in saline
  T/C: 106 % of control
dose: 25.0 mg/kg/injection, schedule: Q01DX009 (ip), vehicle: suspension in saline
  T/C: 113 % of control
dose: 50.0 mg/kg/injection, schedule: Q01DX009 (ip), vehicle: suspension in saline
  T/C: 119 % of control
dose: 100.0 mg/kg/injection, schedule: Q01DX009 (ip), vehicle: suspension in saline
  T/C: 118 % of control

## CCCC(=O)O
[11]
  T/C: 100 % of control
[15]
  T/C: 96 % of control
[12]
  T/C: 93 % of control
[13]
  T/C: 98 % of control
[14]
  T/C: 93 % of control

## CCC1=C[C@H]2CN(CCc3c([nH]c4ccccc34)[C@@](C(=O)OC)(c3cc4c(cc3OC)N(C)[C@H]3[C@@](O)(C(=O)NN)[C@H](O)[C@]5(CC)C=CCN6CC[C@]43[C@@H]65)C2)C1
dose: 15.62 micrograms/kg/injection, schedule: Q01DX009 (ip), vehicle: water
  T/C: 116 % of control
dose: 31.25 micrograms/kg/injection, schedule: Q01DX009 (ip), vehicle: water
  T/C: 119 % of control
dose: 125.0 micrograms/kg/injection, schedule: Q01DX009 (ip), vehicle: water
  T/C: 167 % of control
dose: 250.0 micrograms/kg/injection, schedule: Q01DX009 (ip), vehicle: water
  T/C: 166 % of control
dose: 500.0 micrograms/kg/injection, schedule: Q01DX009 (ip), vehicle: water
  T/C: 176 % of control

## CC1=C[S+](c2ccccc2)c2cccc3cc4ccccc4c1c23 (stereo not drawn)
dose: 0.06 mg/kg/injection, schedule: Q01DX009 (ip), vehicle: saline with Tween-80
  T/C: 106 % of control
dose: 0.12 mg/kg/injection, schedule: Q01DX009 (ip), vehicle: saline with Tween-80
  T/C: 103 % of control
dose: 0.25 mg/kg/injection, schedule: Q01DX009 (ip), vehicle: saline with Tween-80
  T/C: 115 % of control
dose: 0.5 mg/kg/injection, schedule: Q01DX009 (ip), vehicle: saline with Tween-80
  T/C: 100 % of control
dose: 1.0 mg/kg/injection, schedule: Q01DX009 (ip), vehicle: saline with Tween-80
  T/C: 111 % of control
dose: 2.0 mg/kg/injection, schedule: Q01DX009 (ip), vehicle: saline with Tween-80
  T/C: 112 % of control and 106 % of control

## CC(O)CNC1c2ccccc2CC1O (stereo not drawn)
[15]
  T/C: 90 % of control
[12]
  T/C: 93 % of control
[13]
  T/C: 89 % of control

## CC(C)CC(NC(=O)C(CSCc1ccccc1)NC(=O)OCc1ccccc1)C(N)=O (stereo not drawn) (Cbz-Cys(Bn)-Leu-NH2; configuration not given here)
dose: 12.5 mg/kg/injection, schedule: Q01DX009 (ip), vehicle: Klucel (hydroxypropylcellulose) (HPC)
  T/C: 107 % of control
[16]
  T/C: 98 % of control
[8]
  T/C: 100 % of control

## CCCCCCCCCCCCOCCCOP(=O)([O-])OCC[N+](C)(C)C
dose: 3.13 mg/kg/injection, schedule: Q01DX009 (ip), vehicle: saline
  T/C: 100 % of control
[10]
  T/C: 100 % of control
[11]
  T/C: 100 % of control
[15]
  T/C: 91 % of control

## CC(C)(C)OC(=O)NC(Cc1c[nH]c2ccccc12)C(=O)O (stereo not drawn)
dose: 100.0 mg/kg/injection, schedule: Q01DX009 (ip), vehicle: distilled water + alcohol
  T/C: 94 % of control
dose: 200.0 mg/kg/injection, schedule: Q01DX009 (ip), vehicle: distilled water + alcohol
  T/C: 94 % of control

## CN(C)c1ccc2c(Nc3ccc(NS(C)(=O)=O)cc3)c3ccc(N(C)C)cc3nc2c1
[16]
  T/C: 94 % of control
[8]
  T/C: 115 % of control and 92 % of control
[9]
  T/C: 90 % of control and 104 % of control
